# Test results from patent publication US8192962B2, “Processes for detecting toxic substances” (Daikin Industries, Ltd., priority 2001, dated 2012).
# System: DNA repair protein genes
# Experiment: DNA chip mRNA expression in yeast, DNA repair protein genes (Table 3)
# Format: cell-based, Saccharomyces cerevisiae S288C
# Details: incubated two hours, concentrations as in the 1st table
# In short: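 Untreated cultures served as reference for log-phase S288C yeast given a growth-inhibiting, non-lethal toxicant dose for 2 h at 25° C. in YPD. Gene expression was measured on a whole-genome DNA chip from Cy3/Cy5-labeled cDNA.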
structure (smiles),measurement,setting,value
"CN(C)C(=S)SSC(=S)N(C)C [(10), Tetramethylthiuram disulfide]",The level of expressed mRNA in the presence of chemical substance/The level of expressed mRNA in the absence of chemical substance,yeast gene YAL015C,2.7
same,The level of expressed mRNA in the presence of chemical substance/The level of expressed mRNA in the absence of chemical substance,yeast gene YAR007C,1.7
same,The level of expressed mRNA in the presence of chemical substance/The level of expressed mRNA in the absence of chemical substance,yeast gene YBL019W,1.4
same,The level of expressed mRNA in the presence of chemical substance/The level of expressed mRNA in the absence of chemical substance,yeast gene YBR073W,1.8
same,The level of expressed mRNA in the presence of chemical substance/The level of expressed mRNA in the absence of chemical substance,yeast gene YBR272C,2.7
same,The level of expressed mRNA in the presence of chemical substance/The level of expressed mRNA in the absence of chemical substance,yeast gene YCR014C,1.0
same,The level of expressed mRNA in the presence of chemical substance/The level of expressed mRNA in the absence of chemical substance,yeast gene YDL017W,1.8
same,The level of expressed mRNA in the presence of chemical substance/The level of expressed mRNA in the absence of chemical substance,yeast gene YDL059C,7.8
same,The level of expressed mRNA in the presence of chemical substance/The level of expressed mRNA in the absence of chemical substance,yeast gene YDL200C,1.8
same,The level of expressed mRNA in the presence of chemical substance/The level of expressed mRNA in the absence of chemical substance,yeast gene YDR054C,3.2
same,The level of expressed mRNA in the presence of chemical substance/The level of expressed mRNA in the absence of chemical substance,yeast gene YDR369C,1.8
same,The level of expressed mRNA in the presence of chemical substance/The level of expressed mRNA in the absence of chemical substance,yeast gene YEL019C,0.7
same,The level of expressed mRNA in the presence of chemical substance/The level of expressed mRNA in the absence of chemical substance,yeast gene YEL037C,1.2
same,The level of expressed mRNA in the presence of chemical substance/The level of expressed mRNA in the absence of chemical substance,yeast gene YER162C,1.6
same,The level of expressed mRNA in the presence of chemical substance/The level of expressed mRNA in the absence of chemical substance,yeast gene YFL014W,5.8
same,The level of expressed mRNA in the presence of chemical substance/The level of expressed mRNA in the absence of chemical substance,yeast gene YGL058W,1.8
same,The level of expressed mRNA in the presence of chemical substance/The level of expressed mRNA in the absence of chemical substance,yeast gene YGL091C,6.0
same,The level of expressed mRNA in the presence of chemical substance/The level of expressed mRNA in the absence of chemical substance,yeast gene YGL127C,1.5
same,The level of expressed mRNA in the presence of chemical substance/The level of expressed mRNA in the absence of chemical substance,yeast gene YGL163C,2.3
same,The level of expressed mRNA in the presence of chemical substance/The level of expressed mRNA in the absence of chemical substance,yeast gene YGL249W,2.4
same,The level of expressed mRNA in the presence of chemical substance/The level of expressed mRNA in the absence of chemical substance,yeast gene YGR180C,1.5
same,The level of expressed mRNA in the presence of chemical substance/The level of expressed mRNA in the absence of chemical substance,yeast gene YGR231C,2.3
same,The level of expressed mRNA in the presence of chemical substance/The level of expressed mRNA in the absence of chemical substance,yeast gene YGR258C,1.5
same,The level of expressed mRNA in the presence of chemical substance/The level of expressed mRNA in the absence of chemical substance,yeast gene YHR164C,3.1
same,The level of expressed mRNA in the presence of chemical substance/The level of expressed mRNA in the absence of chemical substance,yeast gene YIL036W,2.7
same,The level of expressed mRNA in the presence of chemical substance/The level of expressed mRNA in the absence of chemical substance,yeast gene YIL072W,2.1
same,The level of expressed mRNA in the presence of chemical substance/The level of expressed mRNA in the absence of chemical substance,yeast gene YIL143C,3.5
same,The level of expressed mRNA in the presence of chemical substance/The level of expressed mRNA in the absence of chemical substance,yeast gene YIL153W,1.1
same,The level of expressed mRNA in the presence of chemical substance/The level of expressed mRNA in the absence of chemical substance,yeast gene YIR002C,1.4
same,The level of expressed mRNA in the presence of chemical substance/The level of expressed mRNA in the absence of chemical substance,yeast gene YJL026W,1.1
same,The level of expressed mRNA in the presence of chemical substance/The level of expressed mRNA in the absence of chemical substance,yeast gene YJR046W,2.4
same,The level of expressed mRNA in the presence of chemical substance/The level of expressed mRNA in the absence of chemical substance,yeast gene YJR052W,2.3
same,The level of expressed mRNA in the presence of chemical substance/The level of expressed mRNA in the absence of chemical substance,yeast gene YKL145W,2.7
same,The level of expressed mRNA in the presence of chemical substance/The level of expressed mRNA in the absence of chemical substance,yeast gene YLR103C,0.5
same,The level of expressed mRNA in the presence of chemical substance/The level of expressed mRNA in the absence of chemical substance,yeast gene YLR233C,0.5
same,The level of expressed mRNA in the presence of chemical substance/The level of expressed mRNA in the absence of chemical substance,yeast gene YLR288C,1.3
same,The level of expressed mRNA in the presence of chemical substance/The level of expressed mRNA in the absence of chemical substance,yeast gene YML032C,1.1
same,The level of expressed mRNA in the presence of chemical substance/The level of expressed mRNA in the absence of chemical substance,yeast gene YML058W,1.2
same,The level of expressed mRNA in the presence of chemical substance/The level of expressed mRNA in the absence of chemical substance,yeast gene YMR035W,1.6
same,The level of expressed mRNA in the presence of chemical substance/The level of expressed mRNA in the absence of chemical substance,yeast gene YMR072W,1.2
same,The level of expressed mRNA in the presence of chemical substance/The level of expressed mRNA in the absence of chemical substance,yeast gene YMR096W,3.7
same,The level of expressed mRNA in the presence of chemical substance/The level of expressed mRNA in the absence of chemical substance,yeast gene YMR284W,1.8
same,The level of expressed mRNA in the presence of chemical substance/The level of expressed mRNA in the absence of chemical substance,yeast gene YNL213C,1.5
same,The level of expressed mRNA in the presence of chemical substance/The level of expressed mRNA in the absence of chemical substance,yeast gene YNL250W,2.3
same,The level of expressed mRNA in the presence of chemical substance/The level of expressed mRNA in the absence of chemical substance,yeast gene YNL261W,1.5
same,The level of expressed mRNA in the presence of chemical substance/The level of expressed mRNA in the absence of chemical substance,yeast gene YNL312W,2.5
same,The level of expressed mRNA in the presence of chemical substance/The level of expressed mRNA in the absence of chemical substance,yeast gene YOL043C,1.8
same,The level of expressed mRNA in the presence of chemical substance/The level of expressed mRNA in the absence of chemical substance,yeast gene YOR005C,1.5
same,The level of expressed mRNA in the presence of chemical substance/The level of expressed mRNA in the absence of chemical substance,yeast gene YOR386W,3.0
same,The level of expressed mRNA in the presence of chemical substance/The level of expressed mRNA in the absence of chemical substance,yeast gene YPL022W,1.6
same,The level of expressed mRNA in the presence of chemical substance/The level of expressed mRNA in the absence of chemical substance,yeast gene YPL164C,2.0
same,The level of expressed mRNA in the presence of chemical substance/The level of expressed mRNA in the absence of chemical substance,yeast gene YPL194W,3.1
same,The level of expressed mRNA in the presence of chemical substance/The level of expressed mRNA in the absence of chemical substance,yeast gene YPR025C,1.7
